Reference: ChEMBL document CHEMBL1201862, “PubChem BioAssay data set” (2004)
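Assay format: 96-well plates, 48-hour exposure. The concentration for 50% growth inhibition is given as GI50.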 The source made the active and inactive calls. Rule as the data show it: active = GI50 up to about 1.1 µM and inactive = higher.

Assays:
Experiment in all cases: growth of human tumour cells (NCI), 48 h
SF-268 = system: SF-268
SK-OV-3 = system: SK-OV-3
NCI/ADR-RES = system: NCI/ADR-RES
NCI-H23 = system: NCI-H23
UACC-257 = system: UACC-257
ACHN = system: ACHN
KM12 = system: KM12
BT-549 = system: BT-549
HCC 2998 = system: HCC 2998
HCT-15 = system: HCT-15
LOX IMVI = system: LOX IMVI
MCF7 = system: MCF7
HL-60 = system: HL-60
NCI-H460 = system: NCI-H460
K562 = system: K562
U-251 = system: U-251
OVCAR-8 = system: OVCAR-8
RXF 393 = system: RXF 393
HOP-62 = system: HOP-62
UACC-62 = system: UACC-62
A549 = system: A549
MOLT-4 = system: MOLT-4
A498 = system: A498
Hs-578T = system: Hs-578T
SF-295 = system: SF-295
SNB-19 = system: SNB-19
NCI-H226 = system: NCI-H226
CAKI-1 = system: CAKI-1
EKVX = system: EKVX
M14 = system: M14
SK-MEL-28 = system: SK-MEL-28
OVCAR-3 = system: OVCAR-3
IGROV-1 = system: IGROV-1
Malme-3M = system: Malme-3M
MDA-MB-435 = system: MDA-MB-435
OVCAR-5 = system: OVCAR-5
TK-10 = system: TK-10
MDA-N = system: MDA-N
SNB-75 = system: SNB-75
RPMI-8226 = system: RPMI-8226
CCRF-CEM = system: CCRF-CEM
HCT-116 = system: HCT-116
NCI-H522 = system: NCI-H522
SK-MEL-2 = system: SK-MEL-2
SF-539 = system: SF-539
786-0 = system: 786-0
MDA-MB-231 = system: MDA-MB-231
SN12C = system: SN12C
PC-3 = system: PC-3
COLO 205 = system: COLO 205
SW-620 = system: SW-620
SR = system: SR
UO-31 = system: UO-31
HOP-92 = system: HOP-92
T47D = system: T47D
DU-145 = system: DU-145
SK-MEL-5 = system: SK-MEL-5
OVCAR-4 = system: OVCAR-4
HT-29 = system: HT-29

Question: `CCOC(=O)NC(Nc1c(F)c(F)c(F)c(F)c1F)(C(F)(F)F)C(F)(F)F` was tested. Which GI50 (SF-268) did it give?
Answer: The GI50 was > 100 µM (inactive).

Question: And the GI50 (SK-OV-3)?
Answer: The GI50 was > 100 µM (inactive).

Question: And the GI50 (NCI/ADR-RES)?
Answer: The GI50 was > 100 µM (inactive).

Question: What about the GI50 (NCI-H23) of the same compound?
Answer: The GI50 was > 100 µM (inactive).

Question: What about the GI50 (UACC-257) of the same compound?
Answer: The GI50 was > 100 µM (inactive).

Question: And the GI50 (ACHN)?
Answer: Its GI50 is > 100 µM (inactive).

Question: What about the GI50 (KM12) of the same compound?
Answer: Its GI50 is > 100 µM (inactive).

Question: And the GI50 (BT-549)?
Answer: The GI50 was > 100 µM (inactive).

Question: What about the GI50 (HCC 2998) of the same compound?
Answer: The GI50 was > 100 µM (inactive).

Question: And the GI50 (HCT-15)?
Answer: Its GI50 is greater than 100 µM.

Question: And the GI50 (LOX IMVI)?
Answer: Its GI50 is > 100 µM (inactive).

Question: And the GI50 (MCF7)?
Answer: The GI50 was > 100 µM (inactive).

Question: And the GI50 (HL-60)?
Answer: The GI50 was > 100 µM (inactive).

Question: And the GI50 (NCI-H460)?
Answer: The GI50 was > 100 µM (inactive).

Question: What about the GI50 (K562) of the same compound?
Answer: The GI50 was > 100 µM (inactive).

Question: What about the GI50 (U-251) of the same compound?
Answer: The GI50 was > 100 µM (inactive).

Question: What about the GI50 (OVCAR-8) of the same compound?
Answer: Its GI50 is > 100 µM (inactive).

Question: And the GI50 (RXF 393)?
Answer: The GI50 was > 100 µM (inactive).

Question: And the GI50 (HOP-62)?
Answer: Its GI50 is > 100 µM (inactive).

Question: What about the GI50 (UACC-62) of the same compound?
Answer: The GI50 was > 100 µM (inactive).

Question: And the GI50 (A549)?
Answer: Its GI50 is > 100 µM (inactive).

Question: And the GI50 (MOLT-4)?
Answer: Its GI50 is > 100 µM (inactive).

Question: And the GI50 (A498)?
Answer: Its GI50 is > 100 µM (inactive).

Question: What about the GI50 (Hs-578T) of the same compound?
Answer: The GI50 was > 100 µM (inactive).

Question: What about the GI50 (SF-295) of the same compound?
Answer: The GI50 was > 100 µM (inactive).

Question: And the GI50 (SNB-19)?
Answer: The GI50 was > 100 µM (inactive).

Question: What about the GI50 (NCI-H226) of the same compound?
Answer: The GI50 was > 100 µM (inactive).

Question: What about the GI50 (CAKI-1) of the same compound?
Answer: The GI50 was > 100 µM (inactive).

Question: And the GI50 (EKVX)?
Answer: The GI50 was > 100 µM (inactive).

Question: What about the GI50 (M14) of the same compound?
Answer: The GI50 was > 100 µM (inactive).

Question: What about the GI50 (SK-MEL-28) of the same compound?
Answer: The GI50 was > 100 µM (inactive).

Question: What about the GI50 (OVCAR-3) of the same compound?
Answer: Its GI50 is > 100 µM (inactive).

Question: What about the GI50 (IGROV-1) of the same compound?
Answer: The GI50 was > 100 µM (inactive).

Question: What about the GI50 (Malme-3M) of the same compound?
Answer: Its GI50 is > 100 µM (inactive).

Question: What about the GI50 (MDA-MB-435) of the same compound?
Answer: Its GI50 is > 100 µM (inactive).

Question: And the GI50 (OVCAR-5)?
Answer: The GI50 was > 100 µM (inactive).

Question: And the GI50 (TK-10)?
Answer: The GI50 was > 100 µM (inactive).

Question: What about the GI50 (MDA-N) of the same compound?
Answer: Its GI50 is > 100 µM (inactive).

Question: And the GI50 (SNB-75)?
Answer: The GI50 was > 100 µM (inactive).

Question: And the GI50 (RPMI-8226)?
Answer: The GI50 was > 100 µM (inactive).

Question: What about the GI50 (CCRF-CEM) of the same compound?
Answer: The GI50 was > 100 µM (inactive).

Question: What about the GI50 (HCT-116) of the same compound?
Answer: The GI50 was > 100 µM (inactive).

Question: What about the GI50 (NCI-H522) of the same compound?
Answer: Its GI50 is > 100 µM (inactive).

Question: What about the GI50 (SK-MEL-2) of the same compound?
Answer: Its GI50 is > 100 µM (inactive).

Question: And the GI50 (SF-539)?
Answer: Its GI50 is > 100 µM (inactive).

Question: And the GI50 (786-0)?
Answer: Its GI50 is > 100 µM (inactive).

Question: What about the GI50 (MDA-MB-231) of the same compound?
Answer: The GI50 was > 100 µM (inactive).

Question: What about the GI50 (SN12C) of the same compound?
Answer: Its GI50 is > 100 µM (inactive).

Question: And the GI50 (PC-3)?
Answer: The GI50 was > 100 µM (inactive).

Question: And the GI50 (COLO 205)?
Answer: The GI50 was > 100 µM (inactive).

Question: What about the GI50 (SW-620) of the same compound?
Answer: The GI50 was > 100 µM (inactive).

Question: And the GI50 (SR)?
Answer: Its GI50 is > 100 µM (inactive).

Question: What about the GI50 (UO-31) of the same compound?
Answer: Its GI50 is > 100 µM (inactive).

Question: And the GI50 (HOP-92)?
Answer: The GI50 was > 100 µM (inactive).

Question: What about the GI50 (T47D) of the same compound?
Answer: Its GI50 is > 100 µM (inactive).

Question: What about the GI50 (DU-145) of the same compound?
Answer: The GI50 was > 100 µM (inactive).

Question: What about the GI50 (SK-MEL-5) of the same compound?
Answer: The GI50 was > 100 µM (inactive).

Question: Which results are given for `Clc1ccc(-c2nn3c(COc4ccc(OCc5nnc6sc(-c7ccc(Cl)cc7)nn56)c(Cl)c4)nnc3s2)cc1`?
Answer: GI50 (OVCAR-4): 25.5 µM (inactive); GI50 (SF-268): 15.6 µM (inactive); GI50 (SK-OV-3): 27.3 µM (inactive); GI50 (NCI/ADR-RES): 27.7 µM (inactive); GI50 (NCI-H23): 21.1 µM (inactive); GI50 (UACC-257): 44.7 µM (inactive); GI50 (ACHN): 44.2 µM (inactive); GI50 (KM12): 29.4 µM (inactive); GI50 (BT-549): 18.9 µM (inactive); GI50 (HCC 2998): 20.2 µM (inactive); GI50 (HCT-15): 28 µM; GI50 (LOX IMVI): 17.9 µM (inactive); GI50 (MCF7): 35.7 µM (inactive); GI50 (HL-60): 17.7 µM (inactive); GI50 (NCI-H460): 52 µM (inactive); GI50 (K562): 25.1 µM (inactive); GI50 (U-251): 21.8 µM (inactive); GI50 (OVCAR-8): 22 µM (inactive); GI50 (RXF 393): 15.8 µM (inactive); GI50 (HOP-62): 23.2 µM (inactive); GI50 (UACC-62): > 100 µM (inactive); GI50 (A549): 24.4 µM (inactive); GI50 (MOLT-4): 20.5 µM (inactive); GI50 (A498): 32.7 µM (inactive); GI50 (Hs-578T): 30.3 µM (inactive); GI50 (SF-295): 26.5 µM (inactive); GI50 (SNB-19): 14.6 µM (inactive); GI50 (NCI-H226): 74.5 µM (inactive); GI50 (CAKI-1): 21.6 µM (inactive); GI50 (EKVX): 27 µM (inactive); GI50 (M14): 31.7 µM (inactive); GI50 (SK-MEL-28): 31.3 µM (inactive); GI50 (OVCAR-3): 45.4 µM (inactive); GI50 (IGROV-1): 18.9 µM (inactive); GI50 (HT-29): 17.5 µM (inactive); GI50 (Malme-3M): 37.3 µM (inactive); GI50 (MDA-MB-435): 33.7 µM (inactive); GI50 (OVCAR-5): 24.2 µM (inactive); GI50 (TK-10): 17.5 µM (inactive); GI50 (MDA-N): 22 µM (inactive); GI50 (SNB-75): 12.7 µM (inactive); GI50 (RPMI-8226): 24.5 µM (inactive); GI50 (HCT-116): 24.8 µM (inactive); GI50 (NCI-H522): 15.6 µM (inactive); GI50 (SK-MEL-2): 53.3 µM (inactive); GI50 (SF-539): 24 µM (inactive); GI50 (786-0): 13.7 µM (inactive); GI50 (MDA-MB-231): 32.2 µM (inactive); GI50 (SN12C): > 100 µM (inactive); GI50 (PC-3): 31 µM (inactive); GI50 (COLO 205): 57.8 µM (inactive); GI50 (SW-620): 24 µM (inactive); GI50 (SR): 19.1 µM (inactive); GI50 (UO-31): 17.3 µM (inactive); GI50 (HOP-92): 17.5 µM (inactive); GI50 (T47D): 36.5 µM (inactive); GI50 (DU-145): 37.5 µM (inactive); GI50 (SK-MEL-5): 20.9 µM (inactive)
